From PubChem BioAssay AID328 (DTP/NCI, 2004) come the findings set out here.

Each structure is given as a SMILES string. Several values for one entry are separate records, joined by “and”; a condition that tells them apart may be missing. Identical values can stand only once. Inconclusive results and toxic doses are left out.

For the assay, the system named is BDF1 mice, P388 leukemia ip, median survival T/C. Description: NCI In Vivo Anticancer Drug Screen. Data for tumor model P388 Leukemia (intraperitoneal) in B6D2F1 (BDF1) mice. As to conditions: endpoint: median survival time, higher = longer survival. In a few lines: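 Each value expresses how treatment altered survival: treated-mouse outcome over vehicle-mouse outcome, both groups bearing the transplanted tumour.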

Setting [1] is: dose: 50.0 mg/kg/injection, schedule: Q01DX009 (ip), vehicle: saline with Tween-80.
[2] abbreviates: dose: 100.0 mg/kg/injection, schedule: Q01DX009 (ip), vehicle: saline with Tween-80.
[3] abbreviates: dose: 200.0 mg/kg/injection, schedule: Q01DX009 (ip), vehicle: saline with Tween-80.
The mark [4] stands for this setting: dose: 100.0 mg/kg/injection, schedule: Q04DX003 (ip), vehicle: saline with Tween-80.
The mark [5] stands for this setting: dose: 200.0 mg/kg/injection, schedule: Q04DX003 (ip), vehicle: saline with Tween-80.
[6] abbreviates: dose: 400.0 mg/kg/injection, schedule: Q04DX003 (ip), vehicle: saline with Tween-80.
[7] abbreviates: dose: 100.0 mg/kg/injection, schedule: Q01DX009 (ip), vehicle: saline.
Setting [8] is: dose: 400.0 mg/kg/injection, schedule: Q01DX009 (ip), vehicle: saline.

Turning to `CC1CN(N)CC(C)N1Cc1ccccc1` (stereo not given), the T/C runs as follows: (dose: 3.12 mg/kg/injection, schedule: Q04DX003 (ip), vehicle: water) 98 % of control; (dose: 6.25 mg/kg/injection, schedule: Q04DX003 (ip), vehicle: water) 104 % of control; (dose: 12.5 mg/kg/injection, schedule: Q04DX003 (ip), vehicle: water) 108 % of control; (dose: 25.0 mg/kg/injection, schedule: Q04DX003 (ip), vehicle: water) 113 % of control.
On to `C(=N/c1ncn[nH]1)/Nc1ncn[nH]1`, for which the T/C was 100 % of control (dose: 12.5 mg/kg/injection, schedule: Q01DX009 (ip), vehicle: suspension in saline); 113 % of control (dose: 25.0 mg/kg/injection, schedule: Q01DX009 (ip), vehicle: suspension in saline); 118 % of control (dose: 50.0 mg/kg/injection, schedule: Q01DX009 (ip), vehicle: suspension in saline); 96 % of control (dose: 100.0 mg/kg/injection, schedule: Q01DX009 (ip), vehicle: suspension in saline).
As for `ICCCCCCCCCC[n+]1ccc2ccccc2c1`, the T/C reads like this: (dose: 12.5 mg/kg/injection, schedule: Q01DX005 (ip), vehicle: saline with Tween-80) 120 % of control; (dose: 25.0 mg/kg/injection, schedule: Q01DX005 (ip), vehicle: saline with Tween-80) 122 % of control.
`C=C1CCCCC1O` (stereo not given): the T/C is 101 % of control under setting [1], 95 % of control under setting [2] and 101 % of control under setting [3].
In the case of `C1CC[N-]CC1.C1CC[N-]CC1.[Co].[N-]=C=S.[N-]=C=S`, under “dose: 100.0 mg/kg/injection, schedule: Q01DX001 (ip), vehicle: saline with Tween-80”, the T/C was 99 % of control.
Turning to `COc1cccc2c1C(=O)c1c(O)c3c(c(O)c1C2=O)C[C@@](O)(C(C)=O)C[C@@H]3OC(=O)CCN`, the T/C (dose: 1.56 mg/kg/injection, schedule: Q01DX009 (ip), vehicle: water) was 100 % of control and 123 % of control; the T/C (dose: 3.12 mg/kg/injection, schedule: Q01DX009 (ip), vehicle: water) is 93 % of control; the T/C (dose: 6.25 mg/kg/injection, schedule: Q01DX009 (ip), vehicle: water) is 169 % of control.
`C(=Nc1ccccc1)c1ccc(C=Nc2ccccc2)cc1`: the T/C reads like this: under setting [1], 110 % of control; under setting [2], 105 % of control; under setting [4], 104 % of control; under setting [3], 100 % of control; under setting [5], 109 % of control; under setting [6], 100 % of control.
Consider `CC1(C)OC(=O)C(=Cc2c(Cl)cccc2Cl)C(=O)O1`, for which the T/C by setting is: (dose: 100.0 mg/kg/injection, schedule: Q01DX001 (ip), vehicle: Klucel (hydroxypropylcellulose) (HPC)) 109 % of control; (dose: 100.0 mg/kg/injection, schedule: Q01DX009 (ip), vehicle: Klucel (hydroxypropylcellulose) (HPC)) 87 % of control; (dose: 200.0 mg/kg/injection, schedule: Q01DX001 (ip), vehicle: Klucel (hydroxypropylcellulose) (HPC)) 104 % of control; (dose: 200.0 mg/kg/injection, schedule: Q01DX009 (ip), vehicle: Klucel (hydroxypropylcellulose) (HPC)) 104 % of control; (dose: 400.0 mg/kg/injection, schedule: Q01DX001 (ip), vehicle: Klucel (hydroxypropylcellulose) (HPC)) 109 % of control; (dose: 400.0 mg/kg/injection, schedule: Q01DX009 (ip), vehicle: Klucel (hydroxypropylcellulose) (HPC)) 100 % of control.
In the case of `CCC[CH2][Sn](=[S])[CH2]CCC`, the T/C by setting is: (dose: 0.59 mg/kg/injection, schedule: Q01DX009 (ip), vehicle: other) 111 % of control; (dose: 1.33 mg/kg/injection, schedule: Q01DX009 (ip), vehicle: other) 115 % of control; (dose: 1.56 mg/kg/injection, schedule: Q04DX003 (ip), vehicle: other) 109 % of control; (dose: 2.66 mg/kg/injection, schedule: Q04DX003 (ip), vehicle: other) 109 % of control; (dose: 3.13 mg/kg/injection, schedule: Q04DX003 (ip), vehicle: other) 116 % of control; (dose: 6.25 mg/kg/injection, schedule: Q04DX003 (ip), vehicle: other) 156 % of control. The T/C (dose: 200.0 mg/kg/injection, schedule: Q01DX010 (ip), vehicle: carboxymethylcellulose (CMC)) is 110 % of control.
As to `COc1ccccc1C(=O)NN`, the T/C runs as follows: (dose: 6.25 mg/kg/injection, schedule: Q04DX003 (ip), vehicle: saline) 100 % of control; (dose: 12.5 mg/kg/injection, schedule: Q04DX003 (ip), vehicle: saline) 110 % of control; (dose: 25.0 mg/kg/injection, schedule: Q04DX003 (ip), vehicle: saline) 105 % of control.
As for `N=C(N)c1ccc(Nc2ccc(C(=N)N)cc2)cc1`, the T/C is 100 % of control (dose: 3.0 mg/kg/injection, schedule: Q01DX010 (ip), vehicle: saline); 91 % of control and 95 % of control (dose: 6.0 mg/kg/injection, schedule: Q01DX010 (ip), vehicle: saline); 91 % of control and 100 % of control (dose: 12.0 mg/kg/injection, schedule: Q01DX010 (ip), vehicle: saline); 95 % of control (dose: 24.0 mg/kg/injection, schedule: Q01DX010 (ip), vehicle: saline).
For the compound `C=CC(C)(C(=O)O)C(C)C` (stereo not given), the T/C is, setting by setting: under setting [1], 101 % of control; under setting [2], 100 % of control; under setting [3], 97 % of control.
Take `c1ccc2c(c1)ccc1cc3cc(NCCCCNc4ccc5nc6c(ccc7ccccc76)cc5c4)ccc3nc12`: the T/C was 108 % of control (dose: 1.56 mg/kg/injection, schedule: Q01DX009 (ip), vehicle: saline with Tween-80); 105 % of control (dose: 3.13 mg/kg/injection, schedule: Q01DX009 (ip), vehicle: saline with Tween-80); 108 % of control (dose: 6.25 mg/kg/injection, schedule: Q01DX009 (ip), vehicle: saline with Tween-80).
`CCOC(=O)CCC#N`: the T/C reads like this: (dose: 50.0 mg/kg/injection, schedule: Q01DX009 (ip), vehicle: saline) 100 % of control; under setting [7], 116 % of control; under setting [8], 99 % of control.
Consider `Cc1cccc2cc3c(ccc4ccccc43)c[n+]12`, for which the T/C runs as follows: (dose: 1.0 mg/kg/injection, schedule: Q01DX009 (ip), vehicle: Klucel (hydroxypropylcellulose) (HPC)) 109 % of control; (dose: 2.0 mg/kg/injection, schedule: Q01DX009 (ip), vehicle: Klucel (hydroxypropylcellulose) (HPC)) 100 % of control; (dose: 4.0 mg/kg/injection, schedule: Q01DX009 (ip), vehicle: Klucel (hydroxypropylcellulose) (HPC)) 100 % of control; (dose: 8.0 mg/kg/injection, schedule: Q01DX009 (ip), vehicle: Klucel (hydroxypropylcellulose) (HPC)) 113 % of control.
Turning to `C=C1C(=O)OC2CC(C)C3CC(=O)C(C)=C3C(O)C12` (stereo not given), the T/C is, setting by setting: (dose: 25.0 mg/kg/injection, schedule: Q01DX009 (ip), vehicle: Klucel (hydroxypropylcellulose) (HPC)) 120 % of control; (dose: 50.0 mg/kg/injection, schedule: Q01DX009 (ip), vehicle: Klucel (hydroxypropylcellulose) (HPC)) 112 % of control.
With `CC(C)(C)c1ccc(C(=O)C2CC2)cc1`, the T/C (dose: 25.0 mg/kg/injection, schedule: Q04DX003 (ip), vehicle: saline with Tween-80) was 90 % of control; the T/C (dose: 50.0 mg/kg/injection, schedule: Q04DX003 (ip), vehicle: saline with Tween-80) was 95 % of control; the T/C under setting [4] is 86 % of control.
`Cc1cc(C)nc(NS(=O)(=O)c2ccc(NC(=O)C(Cl)(Cl)Cl)cc2)n1`: the T/C reads like this: (dose: 100.0 mg/kg/injection, schedule: Q01DX005 (ip), vehicle: saline with Tween-80) 93 % of control; (dose: 200.0 mg/kg/injection, schedule: Q01DX005 (ip), vehicle: saline with Tween-80) 88 % of control.
For `O=C(Cn1cc(F)c(=O)[nH]c1=O)c1cccs1`, the T/C is 100 % of control under setting [7]; 95 % of control (dose: 100.0 mg/kg/injection, schedule: Q04DX003 (ip), vehicle: saline); 100 % of control (dose: 200.0 mg/kg/injection, schedule: Q01DX009 (ip), vehicle: saline); 90 % of control (dose: 200.0 mg/kg/injection, schedule: Q04DX003 (ip), vehicle: saline); 95 % of control under setting [8]; 90 % of control (dose: 400.0 mg/kg/injection, schedule: Q04DX003 (ip), vehicle: saline).
Take `Cc1ccc(C)c(-n2nnc3ccccc3c2=O)c1`: the T/C was 100 % of control under setting [2]; 100 % of control under setting [4]; 86 % of control under setting [3]; 90 % of control under setting [5]; 100 % of control (dose: 400.0 mg/kg/injection, schedule: Q01DX009 (ip), vehicle: saline with Tween-80); 100 % of control under setting [6].
